Reference: ChEMBL document CHEMBL5537154, “Smart glypican-3-targeting peptide-chlorin e6 conjugates for targeted photodynamic therapy of hepatocellular carcinoma” (Eur J Med Chem, 2024)
Activity calls are given as the source filed them. The calls are words filed in the database; no cut-off is given here. Peptide text beside a SMILES is read from it.

What was measured:
HepG2 [1] = assay: Antiproliferative activity against human HepG2 cells under dark condition by CCK8 assay; type: functional, cell-based
HepG2 [2] = assay: Antiproliferative activity against human HepG2 cells under 10 J/cm2 light irradiation at 660 nm by CCK8 assay; type: functional, cell-based; settings: HepG2, light or radiation study
Huh-7 = assay: Antiproliferative activity against human Huh-7 cells under 10 J/cm2 light irradiation at 660 nm by CCK8 assay; type: functional, cell-based; settings: Huh-7, light or radiation study
MCF7 = assay: Antiproliferative activity against human MCF7 cells under dark condition by CCK8 assay; type: functional, cell-based
HeLa = assay: Antiproliferative activity against human HeLa cells under 10 J/cm2 light irradiation at 660 nm by CCK8 assay; type: functional, cell-based; settings: light or radiation study
[3] = Antiproliferative activity against human HUVEC cells under dark condition by CCK8 assay; type: toxicity, cell-based
[4] = Partition coefficient, logP of compound; type: physicochemical; settings: octanol/water
[5] = […] assessed as decrease in fluorescence intensity of DMA; type: functional
[6] = Drug uptake in human HUVEC cells at 500 nM incubated for 0.5 hrs by flow cytometry; type: ADME, cell-based; settings: 0.5 µM
[7] = Drug uptake in human Huh-7 cells at 10 uM by confocal microscopy; type: ADME, cell-based; settings: huh-7, 10 µM, TDE = time-dependent effect, time 4-24 hrs
[8] = Drug uptake in lysosome of human HepG2 cells assessed as pearsons co-efficient of lyso tracker green DND-26-yellow signal at 2 uM incubated for 24 hrs by laser confocal microscopy; type: ADME, subcellular; settings: hepg2, 24 h
HepG2 [9] = assay: Induction of apoptosis in human HepG2 cells assessed as late apoptotic cells at 2.5 uM incubated for 24 hrs followed by 10 J/cm2 of light irradiation at 660 nm measured after 24 hrs by Annexin V-FITC/PI staining based flow cytometry relative to control; type: functional; settings: time 48 hrs
HepG2 [10] = assay: Induction of apoptosis in human HepG2 cells assessed as necrotic cells at 2.5 uM incubated for 24 hrs followed by 10 J/cm2 of light irradiation at 660 nm measured after 24 hrs by Annexin V-FITC/PI staining based flow cytometry relative to control; type: functional; settings: time 48 hrs
HepG2 [11] = assay: Induction of apoptosis in human HepG2 cells assessed as necrotic cells at 5 uM incubated for 24 hrs followed by 10 J/cm2 of light irradiation at 660 nm measured after 24 hrs by Annexin V-FITC/PI staining based flow cytometry relative to control; type: functional; settings: time 48 hrs
HepG2 [12] = assay: Induction of apoptosis in human HepG2 cells assessed as early apoptotic cells under dark condition at 5 uM incubated for 24 hrs by Annexin V-FITC/PI staining based flow cytometry relative to control; type: functional
HepG2 [13] = assay: Induction of apoptosis in human HepG2 cells assessed as late apoptotic cells under dark condition at 5 uM incubated for 24 hrs by Annexin V-FITC/PI staining based flow cytometry relative to control; type: functional
HepG2 [14] = assay: Induction of apoptosis in human HepG2 cells assessed as necrotic cells under dark condition at 5 uM incubated for 24 hrs by Annexin V-FITC/PI staining based flow cytometry relative to control; type: functional
[15] = Drug uptake in lysosome of human Huh-7 cells at 2 uM incubated for 24 hrs by lyso tracker green DND-26 probe based laser confocal microscopy; type: ADME, subcellular; settings: huh-7, 24 h
[16] = Drug uptake in endoplasmic reticulum of human Huh-7 cells at 2 uM incubated for 24 hrs by ER tracker green probe based laser confocal microscopy; type: ADME, subcellular; settings: huh-7, 24 h
HepG2 [17] = assay: Induction of cell cycle arrest at S phase in human HepG2 cells at 1 uM under 10 J/cm2 light irradiation at 660 nm by flow cytometry relative to control; type: functional
[18] = Drug distribution in liver of BALB/C nude mouse model xenografted with human HepG2 cells at 1 to 2 uM/kg, iv measured for 1 to 4 hrs by fluorescence imaging analysis; type: ADME, organism-based; settings: in vivo, dose lower 1 µM/Kg, time lower 1 hrs, dose upper 2 µM/Kg, time upper 4 hrs
[19] = Drug distribution in lung of BALB/C nude mouse model xenografted with human HepG2 cells at 1 to 2 uM/kg, iv measured for 1 to 4 hrs by fluorescence imaging analysis; type: ADME, organism-based; settings: in vivo, dose lower 1 µM/Kg, time lower 1 hrs, dose upper 2 µM/Kg, time upper 4 hrs
[20] = Drug distribution in tumor of BALB/C nude mouse model xenografted with human HepG2 cells at 1 to 2 uM/kg, iv measured for 1 to 6 hrs by fluorescence imaging analysis; type: ADME, organism-based, Neoplasm; settings: in vivo, dose lower 1 µM/Kg, time lower 1 hrs, dose upper 2 µM/Kg, time upper 6 hrs
[21] = Drug distribution in tumor of BALB/C nude mouse model xenografted with human Huh-7 cells at 1 to 2 uM/kg, iv measured for 1 to 6 hrs by fluorescence imaging analysis; type: ADME, organism-based, Neoplasm; settings: in vivo, dose lower 1 µM/Kg, time lower 1 hrs, dose upper 2 µM/Kg, time upper 6 hrs
[22] = Drug distribution in tumor of BALB/C nude mouse model xenografted with human HepG2 cells administered intravenously measured after 2 hrs by fluorescence spectrophotometry; type: ADME, tissue-based, Neoplasm; settings: in vivo, iv, dose 1-2 µM/Kg
HepG2 [23] = assay: Antitumor activity in human HepG2 cells xenografted in BALB/C nude mouse model assessed as tumor growth inhibition at 1 to 2 uM/kg, iv administered every two days for 21 days along with 250 mW/cm2 light irradiation at 660 nm for 10 mins at 1 hr post-compound administration relative to control; type: functional; settings: dose 1-2 µM/Kg, time 505.166 hrs, 505.17 h, at 1 to 2 µmol/kg
[24] = Toxicity in BALB/C nude mouse model xenografted with human HepG2 cells assessed as body weight loss at 1 to 2 uM/kg, iv administered every two days for 21 days along with 250 mW/cm2 light irradiation at 660 nm for 10 mins at 1 hr post-compound administration; type: organism-based; settings: in vivo, 505.17 h, dose 1-2 µM/Kg, time 505.166 hrs
[25] = Toxicity in BALB/C nude mouse model xenografted with human HepG2 cells assessed as change in heart weight at 1 to 2 uM/kg, iv administered every two days for 21 days along with 250 mW/cm2 light irradiation at 660 nm for 10 mins at 1 hr post-compound administration; type: organism-based; settings: in vivo, 505.17 h, dose 1-2 µM/Kg, time 505.166 hrs
[26] = Toxicity in BALB/C nude mouse model xenografted with human HepG2 cells assessed as change in kidney weight at 1 to 2 uM/kg, iv administered every two days for 21 days along with 250 mW/cm2 light irradiation at 660 nm for 10 mins at 1 hr post-compound administration; type: organism-based; settings: in vivo, 505.17 h, dose 1-2 µM/Kg, time 505.166 hrs
[27] = Toxicity in BALB/C nude mouse model xenografted with human HepG2 cells assessed as damage in heart at 1 to 2 uM/kg, iv administered every two days for 21 days along with 250 mW/cm2 light irradiation at 660 nm for 10 mins at 1 hr post-compound administration by H and E staining based analysis; type: organism-based; settings: in vivo, 505.17 h, dose 1-2 µM/Kg, time 505.166 hrs
[28] = Toxicity in BALB/C nude mouse model xenografted with human HepG2 cells assessed as damage in liver at 1 to 2 uM/kg, iv administered every two days for 21 days along with 250 mW/cm2 light irradiation at 660 nm for 10 mins at 1 hr post-compound administration by H and E staining based analysis; type: organism-based; settings: in vivo, 505.17 h, dose 1-2 µM/Kg, time 505.166 hrs
[29] = Toxicity in BALB/C nude mouse model xenografted with human HepG2 cells assessed as damage in kidney at 1 to 2 uM/kg, iv administered every two days for 21 days along with 250 mW/cm2 light irradiation at 660 nm for 10 mins at 1 hr post-compound administration by H and E staining based analysis; type: organism-based; settings: in vivo, 505.17 h, dose 1-2 µM/Kg, time 505.166 hrs

## C=Cc1c(C)c2cc3nc(c(CC(=O)O)c4[nH]c(cc5nc(cc1[nH]2)C(C)=C5CC)c(C)c4C(=O)NCCCC(=O)N[C@@H](CC(=O)O)C(=O)N[C@@H](Cc1cnc[nH]1)C(=O)N[C@@H](CC(C)C)C(=O)N[C@@H](C)C(=O)N[C@@H](CO)C(=O)N[C@@H](CC(C)C)C(=O)N[C@@H](Cc1c[nH]c2ccccc12)C(=O)N[C@@H](Cc1c[nH]c2ccccc12)C(=O)NCC(=O)N[C@H](C(=O)N[C@@H](CCC(=O)O)C(=O)N[C@@H](CC(C)C)C(=O)O)[C@@H](C)O)[C@@H](CCC(=O)O)[C@@H]3C (HELM PEPTIDE1{[C=Cc1c(C)c2cc3nc(c(CC(=O)O)c4[nH]c(cc5nc(cc1[nH]2)C(C)=C5CC)c(C)c4C(=O)[*:2])[C@@H](CCC(=O)O)[C@@H]3C].[O=C(CCCN[*:1])[*:2]].D.H.L.A.S.L.W.W.G.T.E.L}$$$$V2.0)
HepG2 [1]
  IC50: > 100 µM
HepG2 [2]
  IC50: 0.82 µM
Huh-7
  IC50: 2.4 µM
MCF7
  IC50: > 100 µM
HeLa
  IC50: > 10 µM
[3]
  IC50: > 200 µM
[4]
  logP: 1.8
[5]
  Activity: Active
[6]
  Drug uptake: Not Active
[7]
  Drug uptake: Tde
[8]
  Activity: 0.79
HepG2 [9]
  Activity: 17.8%
HepG2 [10]
  Activity: 74%
HepG2 [11]
  Activity: 15.3%
HepG2 [12]
  Activity: 2.3%
HepG2 [13]
  Activity: 1.7%
HepG2 [14]
  Activity: 0.1%
[15]
  Drug uptake: Active
[16]
  Drug uptake: Active
HepG2 [17]
  Activity: 27.7%
[18]
  Drug uptake: Not Active
[19]
  Drug uptake: Not Active
[20]
  Drug uptake: Active
[21]
  Drug uptake: Active
[22]
  Drug uptake: Dose-Dependent Effect
HepG2 [23]
  TGI: 100%
[24]
  Activity: Non-Toxic
[25]
  Activity: Non-Toxic
[26]
  Activity: Non-Toxic
[27]
  Activity: Non-Toxic
[28]
  Activity: Non-Toxic
[29]
  Activity: Non-Toxic
